Results taken from US20250332149A1, “PIPERIDINE COMPOUNDS AND PHARMACEUTICAL COMPOSITIONS” (Lumos Pharma, Inc., priority 2024, published 2025).
Like-named read-outs stand apart in the source and are kept apart here.

Key:
Assay type in all cases: in vivo, human
serum IGF-1 = assay: Phase 1 study Part 1: PD, serum IGF-1 concentration
Experimental: The serum IGF-1 concentration values remained stable over the sampling time interval post dose. At pre-dose, mean (SD) serum IGF-1 concentration values were 200.9 (50.41) ng/mL for Treatment A, 192.6 (50.55) ng/mL for Treatment B, 192.5 (47.67) ng/mL for Treatment C, and 195.8 (47.16) ng/mL for Treatment D. At 24 h post-dose, the serum concentration values rose to 224.7 (48.70) ng/mL in Treatment A, 224.2 (50.24) ng/mL in Treatment B, 230.4 (60.81) ng/mL in Treatment C, and 223.7 (56.75) ng/mL in Treatment D.

[1] = test system: serum growth hormone (GH); assay: Phase 1 study Part 1: PD, serum GH concentration; details: for serum GH concentration, peak, mean (SD): 1 h post-dose; for serum GH concentration, mean (SD): pre-dose
Text: • Part 1: To evaluate PD (GH response) of the new LUM-201 formulation as capsule (test). • Part 2: To measure PD (GH response) to LUM-201 administered as capsule (test) in fasted versus fed state. PD Results (pt 1): Individual serum growth hormone (GH) concentration time data were obtained for each subject and treatment cohort. […] Following the administration of LUM-201, the serum GH concentration values increased post dose as expected. At pre-dose, mean (SD) serum GH concentration values were 0.2970 (0.7404) ng/mL for Treatment A, 0.2052 (0.3174) ng/mL for Treatment B, 0.5303 (1.354) ng/mL for Treatment C, and 0.1454 (0.1981) ng/mL for Treatment D. The serum GH concentration value peaked at 1 h post-dose for all treatment groups. 17.10 (15.07) ng/mL in Treatment A, 16.55 (16.36) ng/mL in Treatment B, 17.30 (17.05) ng/mL in Treatment C, and 18.01 (14.32) ng/mL in Treatment D. The trend of serum GH concentration changes in all 4 treatment groups was similar, except for the serum GH concentration in Treatment A that approached the peak concentration sooner, relative to the other treatments, at 0.5 h post-dose.

[2] = Phase 1 study Part 2: food effect on plasma PK of LUM-201 capsule; details: for % AUCex, Arithmetic Mean / % AUCex, Geometric Mean / Clast, Arithmetic Mean / Clast, Geometric Mean / tlag, Median / tlast, Median / λz, Arithmetic Mean / λz, Geometric Mean / AUC(0-inf) / AUC(0-t) / Cmax / half-life / Tmax: oral; for AUC(0-inf) / AUC(0-t) / Cmax / half-life / Tmax: human, plasma, po, 85.3 mg; for Tmax: read-out: tmax, Median
Text: This was a single center, open-label, randomized, Phase 1 study in healthy adult subjects. This study consisted of 2 parts: Part 1 was a 4-sequence, 4-treatment, 4 Treatment Periods, crossover study to determine the relative bioavailability of current tablets to new capsule formulations of LUM-201; Part 2 was a 2-sequence, 2-treatment, 2 Treatment Periods, crossover study to evaluate the food effect on the bioavailability of the new capsule formulation of LUM-201. An individual subject was allowed to participate in only 1 part (Part 1 or Part 2) of the study. Forty subjects were planned and enrolled in this study. • Part 1: A total of 28 subjects were planned and enrolled in Part 1. Part 1 consisted of 4 sequences, each having 4 Treatment Periods enrolling 7 subjects (1:1:1:1 ratio). During Treatment Periods 1 through 4, each subject received 4 single oral doses of LUM-201 drug product in a randomized, crossover order. • Part 2: A total of 12 subjects were planned and enrolled in Part 2. Part 2 consisted of 2 sequences, each having 2 Treatment Periods enrolling 6 subjects (1:1 ratio). Each subject received a single oral dose of LUM-201 at each Treatment Period. During Treatment Periods 1 and 2, each subject received 2 single oral doses of LUM-201 in a randomized, crossover order. • On Day 1 of Treatment Period 1, subjects were administered the assigned treatment (A or B) as randomized, followed by a washout of at least 3 days between Treatment Periods 1 and 2. Subjects stayed in-house (not discharged) between the Treatment Periods. • Treatment A was dosed at 85.3 mg capsule formulation of LUM-201 (intact capsule consumed unopened) consumed while subject was in a fasted state with 240 mL of water. • Treatment B was dosed at 85.3 mg capsule formulation of LUM-201 (intact capsule consumed unopened) consumed 30 minutes after start of a high-fat meal with 240 mL of water. • Subjects were discharged from the study center on the morning of Day 3 of Treatment Period 2 after the scheduled study assessments had been completed.
Fasted Treatment Period (Treatments A): Each subject received a single dose of LUM-201 in the morning of Day 1 after an overnight fast of at least 10 hours.
Treatment A was dosed at 85.3 mg capsule formulation of LUM-201 (intact capsule consumed unopened) consumed while subject was in a fasted state with 240 mL of water.
Fed Treatment Period (Treatment B): On the morning of Day 1, following an overnight fast of at least 10 hours, a high-fat breakfast (approximately 800 to 1000 calories) was served approximately 30 minutes before the planned dosing time. Subjects were required to eat the entire breakfast in less than 30 minutes.
Treatment B was dosed at 85.3 mg capsule formulation of LUM-201 (intact capsule consumed unopened) consumed 30 minutes after the start of the high-fat breakfast with 240 mL of water according to the FDA Guidance 20225. […]

[3] = Part 1, Treatment A: five 18 mg tablets (90 mg), fasted
[4] = Part 1, Treatment B: 85.3 mg whole capsule, fasted
[5] = Part 1, Treatment C: 85.3 mg capsule contents (dry), fasted
[6] = Part 1, Treatment D: 85.3 mg capsule contents in banana puree
[7] = 85.3 mg capsule with food vs fasted, statistically significant
[8] = Part 2, Treatment A: 85.3 mg capsule, fasted
[9] = Part 2, Treatment B: 85.3 mg capsule, 30 minutes after start of high-fat meal

Q: Which “serum IGF-1 concentration, mean (SD)” value (serum IGF-1; 24 h post-dose, Part 1, Treatment A: five 18 mg tablets (90 mg), fasted) does the source give for `CC(C)(N)C(=O)N[C@H](COCc1ccccc1)C(=O)N1CCC2(CC1)CN(S(C)(=O)=O)c1ccccc12` [LUM-201, N-[1(R)-[(1,2-dihydro-1-methanesulfonylspiro[3H-indole-3,4′-piperdin]-yl)carbonyl]-2-(phenylmethyloxy)ethyl]-2-amino-2-methylpropanamide methanesulfonate] here?
A: 224.7 (48.70) ng/mL

Q: What about the “serum IGF-1 concentration, mean (SD)” value (serum IGF-1; 24 h post-dose, Part 1, Treatment B: 85.3 mg whole capsule, fasted) of the same compound?
A: 224.2 (50.24) ng/mL

Q: What about the “serum IGF-1 concentration, mean (SD)” value (serum IGF-1; 24 h post-dose, Part 1, Treatment C: 85.3 mg capsule contents (dry), fasted) of the same compound?
A: 230.4 (60.81) ng/mL

Q: And the “serum IGF-1 concentration, mean (SD)” value (serum IGF-1; 24 h post-dose, Part 1, Treatment D: 85.3 mg capsule contents in banana puree)?
A: 223.7 (56.75) ng/mL

Q: What about the “serum IGF-1 concentration, mean (SD)” value (serum IGF-1; pre-dose, Part 1, Treatment A: five 18 mg tablets (90 mg), fasted) of the same compound?
A: 200.9 (50.41) ng/mL

Q: And the “serum IGF-1 concentration, mean (SD)” value (serum IGF-1; pre-dose, Part 1, Treatment B: 85.3 mg whole capsule, fasted)?
A: 192.6 (50.55) ng/mL

Q: What about the “serum IGF-1 concentration, mean (SD)” value (serum IGF-1; pre-dose, Part 1, Treatment C: 85.3 mg capsule contents (dry), fasted) of the same compound?
A: 192.5 (47.67) ng/mL

Q: And the “serum IGF-1 concentration, mean (SD)” value (serum IGF-1; pre-dose, Part 1, Treatment D: 85.3 mg capsule contents in banana puree)?
A: 195.8 (47.16) ng/mL

Q: What about the “serum GH concentration, peak, mean (SD)” value [1, 3] of the same compound?
A: 17.10 (15.07) ng/mL

Q: What about the “serum GH concentration, peak, mean (SD)” value [1, 4] of the same compound?
A: 16.55 (16.36) ng/mL

Q: And the “serum GH concentration, peak, mean (SD)” value [1, 5]?
A: 17.30 (17.05) ng/mL

Q: What about the “serum GH concentration, peak, mean (SD)” value [1, 6] of the same compound?
A: 18.01 (14.32) ng/mL

Q: And the “PD parameters, capsule versus tablets” value ([1]; Part 1, serum GH and serum IGF-1, 4 treatment groups)?
A: no observed differences

Q: And the “serum GH concentration, mean (SD)” value [1, 3]?
A: 0.2970 (0.7404) ng/mL

Q: What about the “serum GH concentration, mean (SD)” value [1, 4] of the same compound?
A: 0.2052 (0.3174) ng/mL

Q: And the “serum GH concentration, mean (SD)” value [1, 5]?
A: 0.5303 (1.354) ng/mL

Q: And the “serum GH concentration, mean (SD)” value [1, 6]?
A: 0.1454 (0.1981) ng/mL

Q: And the “food effect on tmax” value ([2]; 85.3 mg capsule with food vs fasted)?
A: no significant effect

Q: And the “increase of AUC0-inf with food” value [2, 7]?
A: 17.8%

Q: And the “increase of AUC0-last with food” value [2, 7]?
A: 17.8%

Q: What about the “increase of Cmax with food” value [2, 7] of the same compound?
A: 64.4%

Q: What about the “% AUCex, Arithmetic Mean” value [2, 8] of the same compound?
A: 1.868%

Q: What about the “% AUCex, Geometric Mean” value [2, 8] of the same compound?
A: 1.689%

Q: What about the “Clast, Arithmetic Mean” value [2, 8] of the same compound?
A: 0.7762 ng/mL

Q: What about the “Clast, Geometric Mean” value [2, 8] of the same compound?
A: 0.7216 ng/mL

Q: What about the “tlag, Median” value [2, 8] of the same compound?
A: 0.2489 h

Q: And the “tlast, Median” value [2, 8]?
A: 48.03 h

Q: And the λz, Arithmetic Mean [2, 8]?
A: 0.0874 h⁻¹

Q: What about the λz, Geometric Mean [2, 8] of the same compound?
A: 0.0848 h⁻¹

Q: And the “% AUCex, Arithmetic Mean” value [2, 9]?
A: 2.081%

Q: What about the “% AUCex, Geometric Mean” value [2, 9] of the same compound?
A: 1.845%

Q: What about the “Clast, Arithmetic Mean” value [2, 9] of the same compound?
A: 0.9223 ng/mL

Q: What about the “Clast, Geometric Mean” value [2, 9] of the same compound?
A: 0.8783 ng/mL

Q: And the “tlag, Median” value [2, 9]?
A: 0.2906 h

Q: What about the “tlast, Median” value [2, 9] of the same compound?
A: 48.00 h

Q: And the λz, Arithmetic Mean [2, 9]?
A: 0.0829 h⁻¹

Q: And the λz, Geometric Mean [2, 9]?
A: 0.0803 h⁻¹

Q: What about the AUC(0-inf) ([2]; Part 2, Treatment A: 85.3 mg capsule, fasted, read-out: AUC0-inf, Arithmetic Mean) of the same compound?
A: 538 ng·h/mL

Q: What about the AUC(0-inf) ([2]; Part 2, Treatment A: 85.3 mg capsule, fasted, read-out: AUC0-inf, Geometric Mean) of the same compound?
A: 504 ng·h/mL

Q: What about the AUC(0-t) ([2]; Part 2, Treatment A: 85.3 mg capsule, fasted, read-out: AUC0-last, Arithmetic Mean) of the same compound?
A: 528 ng·h/mL

Q: What about the AUC(0-t) ([2]; Part 2, Treatment A: 85.3 mg capsule, fasted, read-out: AUC0-last, Geometric Mean) of the same compound?
A: 494 ng·h/mL

Q: What about the Cmax ([2]; Part 2, Treatment A: 85.3 mg capsule, fasted, read-out: Cmax, Arithmetic Mean) of the same compound?
A: 87.3 ng/mL

Q: And the Cmax ([2]; Part 2, Treatment A: 85.3 mg capsule, fasted, read-out: Cmax, Geometric Mean)?
A: 80.5 ng/mL

Q: What about the half-life ([2]; Part 2, Treatment A: 85.3 mg capsule, fasted, read-out: t1/2, Arithmetic Mean (converted)) of the same compound?
A: 8.39 h

Q: What about the half-life ([2]; Part 2, Treatment A: 85.3 mg capsule, fasted, read-out: t1/2, Geometric Mean (converted)) of the same compound?
A: 8.17 h

Q: And the Tmax [2, 8]?
A: 1.53 h

Q: And the AUC(0-inf) ([2]; Part 2, Treatment B: 85.3 mg capsule, 30 minutes after start of high-fat meal, read-out: AUC0-inf, Arithmetic Mean)?
A: 626 ng·h/mL

Q: What about the AUC(0-inf) ([2]; Part 2, Treatment B: 85.3 mg capsule, 30 minutes after start of high-fat meal, read-out: AUC0-inf, Geometric Mean) of the same compound?
A: 591 ng·h/mL

Q: And the AUC(0-t) ([2]; Part 2, Treatment B: 85.3 mg capsule, 30 minutes after start of high-fat meal, read-out: AUC0-last, Arithmetic Mean)?
A: 614 ng·h/mL

Q: What about the AUC(0-t) ([2]; Part 2, Treatment B: 85.3 mg capsule, 30 minutes after start of high-fat meal, read-out: AUC0-last, Geometric Mean) of the same compound?
A: 579 ng·h/mL

Q: And the Cmax ([2]; Part 2, Treatment B: 85.3 mg capsule, 30 minutes after start of high-fat meal, read-out: Cmax, Arithmetic Mean)?
A: 151 ng/mL

Q: What about the Cmax ([2]; Part 2, Treatment B: 85.3 mg capsule, 30 minutes after start of high-fat meal, read-out: Cmax, Geometric Mean) of the same compound?
A: 134 ng/mL

Q: What about the half-life ([2]; Part 2, Treatment B: 85.3 mg capsule, 30 minutes after start of high-fat meal, read-out: t1/2, Arithmetic Mean (converted)) of the same compound?
A: 8.87 h

Q: What about the half-life ([2]; Part 2, Treatment B: 85.3 mg capsule, 30 minutes after start of high-fat meal, read-out: t1/2, Geometric Mean (converted)) of the same compound?
A: 8.61 h

Q: And the Tmax [2, 9]?
A: 1.5 h
